Data as given in US20250281424A1 (New York Blood Center, Inc, priority 2020, published 2025).

Target: T1, human PF4 (Homo sapiens, UniProt P02776)
T1 construct: PF4 is a 70 amino acid, lysine-rich 7.8 kDa platelet-specific protein; made in house; host or cells: Escherichia coli BL21DE3 pLysS (pT7-7) and/or Drosophila S2 cells
T1 sequence (P02776 32-101): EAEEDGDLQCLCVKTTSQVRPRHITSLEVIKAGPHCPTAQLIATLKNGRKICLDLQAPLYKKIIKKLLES
Assay: Inhibition of PF4 tetramer formation (BS3 cross-linking, SDS-PAGE)
Assay type: biochemical
Conditions: for IC50: read-out: IC50 of PF4 tetramer formation inhibition; for inhibition at 5 µM: 5 μM inhibitor; for inhibition at 10 µM: 10 μM inhibitor (column A)
In short: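 Recombinant human wild-type PF4 (E. coli-expressed, heparin-purified), 10 μg/ml in PBS, incubated with compound 15 min at 37° C or 60 min at room temperature, then cross-linked with 0.2 mM BS3 for 30 min at room temperature. Reducing 12% SDS-PAGE; bands quantified as % tetramer, trimer, dimer, monomer versus compound-free control.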

[1] = 1 μM inhibitor, read-out: % inhibition of PF4 tetramer formation at single concentration of inhibitor
[2] = 3 μM inhibitor (column A), read-out: % inhibition of PF4 tetramer formation at single concentration of inhibitor
[3] = read-out: % inhibition of PF4 tetramer formation at single concentration of inhibitor
[4] = 3 μM inhibitor (column A), 3 µM

| Structure (SMILES) | inhibition at 1 µM [1] | inhibition at 3 µM [2] | IC50 | inhibition at 5 µM [3] | inhibition at 10 µM [3] | further results |
| --- | --- | --- | --- | --- | --- | --- |
| CC(C)OC(=O)N1CCC[C@H]1C(=O)C1C(=O)c2ccc(C(=O)c3ccc4c(c3)C(=O)C(C(=O)[C@@H]3CCCN3C(=O)OC(C)C)C4=O)cc2C1=O (stereo partly drawn) [Example 134, propan-2-yl (2S)-2-(5-{1,3-dioxo-2-[(2S)-1-[(propan-2-yloxy)carbonyl]pyrrolidine-2-carbonyl]-2,3-dihydro-1H-indene-5-carbonyl}-1,3-dioxo-2,3-dihydro-1H-indene-2-carbonyl)pyrrolidine-1-carboxylate] | – | – | 1.1 µM | – | – | – |
| O=C1CC(=O)c2cc(C(c3ccc4c(c3)C(=O)CC4=O)(C(F)(F)F)C(F)(F)F)ccc21 [Example 13, 5-(2,2,2-trifluoro-1-(5-indan-1,3-dionyl)-1-trifluoromethyl-ethyl)-indan-1,3-dione] | – | – | – | 16% | 74% | – |
| CC(=O)C1C(=O)c2ccc(S(=O)(=O)c3ccc4c(c3)C(=O)C(C(C)=O)C4=O)cc2C1=O (stereo not drawn) [Example 2, 5,5′-sulfonylbis(2-acetyl-1h-indene-1,3(2h)-dione)] | – | – | 18 µM | – | – | – |
| CSCCCC(=O)C1C(=O)c2ccc(S(=O)(=O)c3ccc4c(c3)C(=O)C(C(=O)CCCSC)C4=O)cc2C1=O (stereo not drawn) [Example 285, 2-[4-(methylsulfanyl)butanoyl]-5-({2-[4-(methylsulfanyl)butanoyl]-1,3-dioxo-2,3-dihydro-1H-inden-5-yl}sulfonyl)-2,3-dihydro-1H-indene-1,3-dione] | 33% | 49% | 3 µM | – | – | – |
| CC(C)(C)OC(=O)N1CSC[C@@H]1C(=O)C1C(=O)c2ccc(S(=O)(=O)c3ccc4c(c3)C(=O)C(C(=O)[C@H]3CSCN3C(=O)OC(C)(C)C)C4=O)cc2C1=O (stereo partly drawn) [Example 221, tert-butyl (4S)-4-[5-({2-[(4S)-3-[(tert-butoxy)carbonyl]-1,3-thiazolidine-4-carbonyl]-1,3-dioxo-2,3-dihydro-1H-inden-5-yl}sulfonyl)-1,3-dioxo-2,3-dihydro-1H-indene-2-carbonyl]-1,3-thiazolidine-3-carboxylate] | – | – | 2.3 µM | 92% | 97% | – |
| COC(=O)C(C)(C)CC(=O)C1C(=O)c2ccc(C(=O)c3ccc4c(c3)C(=O)C(C(=O)CC(C)(C)C(=O)OC)C4=O)cc2C1=O (stereo not drawn) [Example 219] | – | – | 5 µM | 68% | 91% | – |
| CC(C)(C)OC(=O)N[C@@H](CC(=O)O)C(=O)C1C(=O)c2ccc(C(=O)c3ccc4c(c3)C(=O)C(C(=O)[C@H](CC(=O)O)NC(=O)OC(C)(C)C)C4=O)cc2C1=O (stereo partly drawn) [Example 188, (3S)-3-{[(tert-butoxy)carbonyl]amino}-4-(5-{2-[(2S)-2-{[(tert-butoxy)carbonyl]amino}-3-carboxypropanoyl]-1,3-dioxo-2,3-dihydro-1H-indene-5-carbonyl}-1,3-dioxo-2,3-dihydro-1H-inden-2-yl)-4-oxobutanoic acid] | – | – | 2.3 µM | 88% | 94% | – |
| O=C(NC1CCCC1)C1C(=O)c2ccc(S(=O)(=O)c3ccc4c(c3)C(=O)C(C(=O)NC3CCCC3)C4=O)cc2C1=O (stereo not drawn) [Example 294, N-cyclopentyl-5-{[2-(cyclopentylcarbamoyl)-1,3-dioxo-2,3-dihydro-1H-inden-5-yl]sulfonyl}-1,3-dioxo-2,3-dihydro-1H-indene-2-carboxamide] | 45% | 88% | 1.97 µM | – | – | – |
| CC(C)(C)OC(=O)N1CCC[C@H]1C(=O)C1C(=O)c2ccc(C(=O)c3ccc4c(c3)C(=O)C(C(=O)[C@@H]3CCCN3C(=O)OC(C)(C)C)C4=O)cc2C1=O (stereo partly drawn) [Example 111, tert-butyl (2S)-2-(5-{2-[(2S)-1-[(tert-butoxy)carbonyl]pyrrolidine-2-carbonyl]-1,3-dioxo-2,3-dihydro-1H-indene-5-carbonyl}-1,3-dioxo-2,3-dihydro-1H-indene-2-carbonyl)pyrrolidine-1-carboxylate] | – | – | 0.5 µM | 100% | 100% | – |
| CC(C)CC(=O)C1C(=O)c2ccc(S(=O)(=O)c3ccc4c(c3)C(=O)C(C(=O)CC(C)C)C4=O)cc2C1=O (stereo not drawn) [Example 145, 2-(3-methylbutanoyl)-5-{[2-(3-methylbutanoyl)-1,3-dioxo-2,3-dihydro-1H-inden-5-yl]sulfonyl}-2,3-dihydro-1H-indene-1,3-dione] | – | – | – | 45% | 55% | – |
| CC(=O)NCC(=O)C1C(=O)c2ccc(Oc3ccc4c(c3)C(=O)C(C(=O)CNC(C)=O)C4=O)cc2C1=O (stereo not drawn) [Example 298, N-[2-(5-{[2-(2-acetamidoacetyl)-1,3-dioxo-2,3-dihydro-1H-inden-5-yl]oxy}-1,3-dioxo-2,3-dihydro-1H-inden-2-yl)-2-oxoethyl]acetamide] | – | – | – | – | – | % inhibition of PF4 tetramer formation at single concentration of inhibitor (1 μM inhibitor, 1 µM): 32%; % inhibition of PF4 tetramer formation at single concentration of inhibitor [4]: 60% |
| CSCC(=O)C1C(=O)c2ccc(Oc3ccc4c(c3)C(=O)C(C(=O)CSC)C4=O)cc2C1=O (stereo not drawn) [Example 280, 2-[2-(methylsulfanyl)acetyl]-5-({2-[2-(methylsulfanyl)acetyl]-1,3-dioxo-2,3-dihydro-1H-inden-5-yl}oxy)-2,3-dihydro-1H-indene-1,3-dione] | 23% | 43% | 3 µM | – | – | – |
| CC(C)(C)OC(=O)N1CCOC(C(=O)C2C(=O)c3ccc(S(=O)(=O)c4ccc5c(c4)C(=O)C(C(=O)C4CN(C(=O)OC(C)(C)C)CCO4)C5=O)cc3C2=O)C1 (stereo not drawn) [Example 233] | 1% | 3% | – | – | – | – |
| C[C@H](NC(=O)C1C(=O)c2ccc(Oc3ccc4c(c3)C(=O)C(C(=O)N[C@@H](C)C(=O)O)C4=O)cc2C1=O)C(=O)O (stereo partly drawn) [Example 313, (2S)-2-({5-[(2-{[(1S)-1-carboxyethyl]carbamoyl}-1,3-dioxo-2,3-dihydro-1H-inden-5-yl)oxy]-1,3-dioxo-2,3-dihydro-1H-inden-2-yl}formamido) propanoic acid] | 31% | 67% | – | – | – | – |

Now from value to compound, other results behind:

| inhibition at 1 µM [1] | inhibition at 3 µM [2] | IC50 | inhibition at 5 µM [3] | inhibition at 10 µM [3] | Structure (SMILES) | further results |
| --- | --- | --- | --- | --- | --- | --- |
| 24% | 46% | – | – | – | O=C(NCC1CCS(=O)(=O)C1)C1C(=O)c2ccc(S(=O)(=O)c3ccc4c(c3)C(=O)C(C(=O)NCC3CCS(=O)(=O)C3)C4=O)cc2C1=O (stereo not drawn) [Example 358, N-[(1,1-dioxo-1λ^6-thiolan-3-yl)methyl]-5-[(2-{[(1,1-dioxo-1λ^6-thiolan-3-yl)methyl]carbamoyl}-1,3-dioxo-2,3-dihydro-1H-inden-5-yl)sulfonyl]-1,3-dioxo-2,3-dihydro-1H-indene-2-carboxamide] | – |
| – | – | – | 0% | 0% | COCCNC(=O)C1C(=O)c2ccc(S(=O)(=O)c3ccc4c(c3)C(=O)C(C(=O)NCCOC)C4=O)cc2C1=O (stereo not drawn) [Example 73, 5,5′-sulfonylbis(n-(2-methoxyethyl)-1,3-dioxo-2,3-dihydro-1h-indene-2-carboxamide)] | – |
| – | – | – | 79% | 86% | O=C(c1ccc2c(c1)C(=O)C(C(=O)Cc1ccccc1)C2=O)c1ccc2c(c1)C(=O)C(C(=O)Cc1ccccc1)C2=O (stereo not drawn) [Example 190, 5-[1,3-dioxo-2-(2-phenylacetyl)-2,3-dihydro-1H-indene-5-carbonyl]-2-(2-phenylacetyl)-2,3-dihydro-1H-indene-1,3-dione] | – |
| 7% | 11% | – | – | – | O=C(c1ccc2c(c1)C(=O)C(C(=O)C1CCCS1(=O)=O)C2=O)c1ccc2c(c1)C(=O)C(C(=O)C1CCCS1(=O)=O)C2=O (stereo not drawn) [Example 371, 2-{5-[2-(1,1-dioxo-1λ^6-thiolane-2-carbonyl)-1,3-dioxo-2,3-dihydro-1H-indene-5-carbonyl]-1,3-dioxo-2,3-dihydro-1H-indene-2-carbonyl}-1λ^6-thiolane-1,1-dione] | – |
| – | – | 1 µM | – | – | O=C(c1ccc2c(c1)C(=O)C(C(=O)Nc1ccccc1)C2=O)c1ccc2c(c1)C(=O)C(C(=O)Nc1ccccc1)C2=O (stereo not drawn) [Example 14, 5,5′-carbonylbis(1,3-dioxo-indan-2-carboxylic acid phenylamide)] | inhibition at 30 µM (30 μM inhibitor, read-out: % inhibition of PF4 tetramer formation at single concentration of inhibitor): 96% |
| – | – | 3 µM | – | – | CC(=O)NCC(=O)C1C(=O)c2ccc(Oc3ccc4c(c3)C(=O)C(C(=O)CNC(C)=O)C4=O)cc2C1=O (stereo not drawn) [Example 246, N-[2-(5-{[2-(2-acetamidoacetyl)-1,3-dioxo-2,3-dihydro-1H-inden-5-yl]oxy}-1,3-dioxo-2,3-dihydro-1H-inden-2-yl)-2-oxoethyl]acetamide] | % inhibition of PF4 tetramer formation at single concentration of inhibitor (1 μM inhibitor, 1 µM): 12%; % inhibition of PF4 tetramer formation at single concentration of inhibitor [4]: 30% |
| 6% | 22% | – | – | – | CC(=O)C1C(=O)c2ccc(Oc3ccc4c(n3)C(=O)C(C(C)=O)C4=O)cc2C1=O (stereo not drawn) [Example 330, 6-acetyl-2-[(2-acetyl-1,3-dioxo-2,3-dihydro-1H-inden-5-yl)oxy]-5H,6H,7H-cyclopenta[b]pyridine-5,7-dione] | – |
| – | – | 6.24 µM | 63% | 70% | O=C(c1ccc2c(c1)C(=O)C(C(=O)NCc1ccccc1)C2=O)c1ccc2c(c1)C(=O)C(C(=O)NCc1ccccc1)C2=O (stereo not drawn) [Example 25, 5,5′-carbonylbis(1,3-dioxo-indan-2-carboxylic acid ((phenyl)methyl)-amide)] | – |
| 19% | 27% | 3 µM | – | – | CCOCC(=O)C1C(=O)c2ccc(Oc3ccc4c(c3)C(=O)C(C(=O)COCC)C4=O)cc2C1=O (stereo not drawn) [Example 247, 2-(2-ethoxyacetyl)-5-{[2-(2-ethoxyacetyl)-1,3-dioxo-2,3-dihydro-1H-inden-5-yl]oxy}-2,3-dihydro-1H-indene-1,3-dione] | – |
